Counter-ions that a name gives are not always drawn.
Experiments:
[1] = molecular target: T1, glycine transporter-1 (GlyT-1) (Homo sapiens, UniProt P48067); assay: [14C]glycine uptake assay in JAR cells endogenously expressing GlyT-1 (scintillation proximity); type: cell-based; conditions: JAR cells, [14C]glycine 5 μM, 3 hour incubation; read-out: GlyT-1 IC50
T1 construct: JAR cells (ATCC#HTB-144), which endogenously express GlyT-1; host or cells: JAR human choriocarcinoma cells
T1 sequence (P48067 1-706): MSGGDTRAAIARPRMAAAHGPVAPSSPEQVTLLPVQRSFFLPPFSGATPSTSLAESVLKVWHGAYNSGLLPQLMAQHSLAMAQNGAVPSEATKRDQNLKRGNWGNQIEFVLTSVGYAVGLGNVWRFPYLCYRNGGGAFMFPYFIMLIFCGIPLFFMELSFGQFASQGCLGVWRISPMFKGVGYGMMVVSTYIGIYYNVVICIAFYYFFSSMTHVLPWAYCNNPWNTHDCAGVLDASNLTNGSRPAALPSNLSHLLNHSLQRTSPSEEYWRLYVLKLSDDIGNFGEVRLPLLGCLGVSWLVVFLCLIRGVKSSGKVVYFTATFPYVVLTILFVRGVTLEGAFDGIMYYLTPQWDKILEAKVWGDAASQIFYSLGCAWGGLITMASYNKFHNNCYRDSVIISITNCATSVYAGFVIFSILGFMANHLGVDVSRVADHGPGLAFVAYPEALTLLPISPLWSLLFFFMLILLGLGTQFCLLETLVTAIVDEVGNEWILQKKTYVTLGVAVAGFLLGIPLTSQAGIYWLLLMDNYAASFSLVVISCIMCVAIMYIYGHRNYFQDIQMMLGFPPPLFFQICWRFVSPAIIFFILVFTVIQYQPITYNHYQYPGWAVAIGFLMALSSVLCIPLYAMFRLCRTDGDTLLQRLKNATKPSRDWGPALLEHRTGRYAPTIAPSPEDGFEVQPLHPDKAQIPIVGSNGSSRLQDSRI
Method in brief: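 IC50 comes from a four-parameter fit of nine-point, duplicate curves measuring inhibition of 5 μM [14C]glycine uptake, read by scintillation proximity after 3 h at 37 °C. Cells are human JAR, which express GlyT-1 endogenously, given 10 min compound pre-treatment in pH 7.4 buffer with 5 mM alanine and 0.75% DMSO.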

[2] = molecular target: T2, glycine transporter-2 (GlyT-2) (Homo sapiens, UniProt Q9Y345); assay: [14C]glycine uptake assay in HEK-GlyT-2 transfected cells; type: cell-based; conditions: HEK-GlyT-2 cells
T2 construct: expressed in transfected cells
T2 sequence (Q9Y345 1-797): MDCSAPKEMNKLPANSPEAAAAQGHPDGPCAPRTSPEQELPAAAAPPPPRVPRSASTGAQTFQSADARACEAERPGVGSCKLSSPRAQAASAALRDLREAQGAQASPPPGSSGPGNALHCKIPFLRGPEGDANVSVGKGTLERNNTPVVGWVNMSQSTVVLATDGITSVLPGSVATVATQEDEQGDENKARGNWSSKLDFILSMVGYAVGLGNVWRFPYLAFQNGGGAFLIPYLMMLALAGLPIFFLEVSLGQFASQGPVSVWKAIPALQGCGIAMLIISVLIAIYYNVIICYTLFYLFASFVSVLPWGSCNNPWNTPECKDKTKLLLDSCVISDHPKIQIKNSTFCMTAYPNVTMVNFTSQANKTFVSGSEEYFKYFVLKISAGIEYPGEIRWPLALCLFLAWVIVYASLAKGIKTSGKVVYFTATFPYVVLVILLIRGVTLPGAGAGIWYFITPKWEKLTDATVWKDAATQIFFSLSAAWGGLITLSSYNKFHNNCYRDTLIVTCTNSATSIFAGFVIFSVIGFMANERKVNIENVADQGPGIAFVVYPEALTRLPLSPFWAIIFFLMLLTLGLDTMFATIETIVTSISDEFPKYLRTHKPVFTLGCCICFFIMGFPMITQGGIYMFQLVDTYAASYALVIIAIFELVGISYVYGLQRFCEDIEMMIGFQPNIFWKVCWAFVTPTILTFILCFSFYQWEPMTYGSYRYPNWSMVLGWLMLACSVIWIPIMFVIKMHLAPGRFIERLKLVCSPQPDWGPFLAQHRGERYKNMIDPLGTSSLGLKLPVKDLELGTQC

Structure (SMILES): CCCS(=O)(=O)N1CCN(C2(CNC(=O)c3ccccc3C(F)(F)F)CCC(F)(F)CC2)CC1 [compound 132, N-((4,4-Difluoro-1-(4-(propylsulfonyl)piperazin-1-yl)cyclohexyl)methyl)-2-(trifluoromethyl) benzamide Hydrochloride]
- IC50 [1]: 0.064 µM
- IC50 [2]: > 75 µM

Structure (SMILES): CCCS(=O)(=O)N1CCN(C2(CNC(=O)c3ccc(F)cc3OC)CCCCC2)CC1 [compound 46, 4-Fluoro-2-methoxy-N-((1-(4-(propyl-sulfonyl)piperazin-1-yl)cyclohexyl)methyl) benzamide Hydrochloride]
- IC50 [1]: 0.357 µM
- IC50 [2]: > 75 µM

Structure (SMILES): CC1CN(C2(CNC(=O)c3ccc(C(F)(F)F)cc3Cl)CCC(F)(F)CC2)CCN1S(=O)(=O)c1cn(C)nn1 (racemic) [compound 227, (±)-2-Chloro-N-((4,4-difluoro-1-(3-methyl-4-(1-methyl-1H-1,2,3-triazol-4-ylsulfonyl)piperazin-1-yl)cyclohexyl)methyl)-4-(trifluoromethyl)benzamide Hydrochloride]
- IC50 [1]: 0.007 µM
- IC50 [2]: > 75 µM

Structure (SMILES): CCCS(=O)(=O)N1CCN(C2(CNC(=O)c3c(C)cc(Cl)cc3C)CCC(F)(F)CC2)CC1 [compound 266, 4-Chloro-N-((4,4-difluoro-1-(4-(propylsulfonyl)piperazin-1-yl)cyclohexyl)methyl)-2,6-dimethylbenzamide Hydrochloride]
- IC50 [1]: 0.011 µM
- IC50 [2]: > 75 µM

Structure (SMILES): COc1cccc(F)c1C(=O)NCC1(N2CCN(S(=O)(=O)CC3CC3)CC2)CCCCC1 [compound 83, N-((1-(4-(Cyclopropylmethyl-sulfonyl)piperazin-1-yl)cyclohexyl)methyl)-2-fluoro-6-methoxybenzamide Hydrochloride]
- IC50 [1]: 0.057 µM
- IC50 [2]: > 75 µM

Structure (SMILES): Cn1cnc(S(=O)(=O)N2CCN(C3(CNC(=O)c4c(F)cccc4F)CCOCC3)CC2)c1 [compound 124, 2,6-Difluoro-N-((4-(4-(1-methyl-1H-imidazol-4-ylsulfonyl)piperazin-1-yl)tetrahydro-2H-pyran-4-yl)methyl)benzamide Hydrochloride]
- IC50 [1]: 0.337 µM
- IC50 [2]: > 75 µM

Structure (SMILES): CCCS(=O)(=O)N1CCN(C2(CNC(=O)c3ccc(OCc4ccccc4)cc3)CCCCC2)CC1 [compound 27, 4-(Benzyloxy)-N-((1-(4-(propylsulfonyl)piperazin-1-yl)cyclohexyl)methyl) benzamide Hydrochloride]
- IC50 [1]: 0.549 µM
- IC50 [2]: 0.635 µM

Structure (SMILES): Cc1cc(F)ccc1C(=O)NCC1(N2CCN(S(=O)(=O)CC3CC3)CC2)CCCCCC1 [compound 85, N-((1-(4-(Cyclopropylmethyl-sulfonyl)piperazin-1-yl)cycloheptyl)methyl)-4-fluoro-2-methylbenzamide Hydrochloride]
- IC50 [1]: 0.182 µM
- IC50 [2]: > 75 µM

Structure (SMILES): CCCS(=O)(=O)N1CCN(C2(CNC(=O)Cc3ccc(Cl)cc3)CCCCC2)CC1 [compound 13, 2-(4-Chlorophenyl)-N-((1-(4-(propylsulfonyl)piperazin-1-yl)cyclohexyl)methyl) acetamide Hydrochloride]
- IC50 [1]: 1.27 µM
- IC50 [2]: > 75 µM

Structure (SMILES): CCCS(=O)(=O)N1CCN(C2(CNC(=O)c3ccc(Cl)cc3OC)CCCCCC2)CC1 [compound 53, 4-Chloro-2-methoxy-N-((1-(4-(propylsulfonyl)piperazin-1-yl)cycloheptyl)methyl) benzamide Hydrochloride]
- IC50 [1]: 0.373 µM
- IC50 [2]: > 75 µM

Structure (SMILES): CCCS(=O)(=O)N1CCN(C2(CNC(=O)c3ccc(Cl)cc3C)CCCCC2)CC1 [compound 9, 4-Chloro-2-methyl-N-((1-(4-(propylsulfonyl)piperazin-1-yl)cyclohexyl)methyl) benzamide Hydrochloride]
- IC50 [1]: 0.022 µM
- IC50 [2]: > 75 µM

Structure (SMILES): CCCS(=O)(=O)N1CCN(C2(CNC(=O)c3ccccc3C)CCCCC2)CC1 [compound 42, 2-Methyl-N-((1-(4-(propylsulfonyl)piperazin-1-yl)cyclohexyl)methyl) benzamide Hydrochloride]
- IC50 [1]: 0.118 µM
- IC50 [2]: > 35 µM

Structure (SMILES): COc1cc(F)cc(C)c1C(=O)NCC1(N2CCN(S(=O)(=O)c3cn(C)nn3)CC2)CCCC1 [compound 112, 4-Fluoro-2-methoxy-6-methyl-N-((1-(4-(1-methyl-1H-1,2,3-triazol-4-ylsulfonyl)piperazin-1-yl)cyclopentyl)methyl) benzamide Hydrochloride]
- IC50 [1]: 0.014 µM
- IC50 [2]: > 75 µM

Structure (SMILES): COc1cc(F)cc(SC)c1C(=O)NCC1(N2CCN(S(=O)(=O)c3cn(C)nn3)CC2)CCCC1 [compound 113, 4-Fluoro-2-methoxy-N-((1-(4-(1-methyl-1H-1,2,3-triazol-4-ylsulfonyl)piperazin-1-yl)cyclopentyl)methyl)-6-(methylthio)benzamide Hydrochloride]
- IC50 [1]: 0.003 µM
- IC50 [2]: > 75 µM

Structure (SMILES): CCS(=O)(=O)N1CCN(C2(CNC(=O)c3c(Cl)cccc3Cl)CCCCCC2)CC1 [compound 88, 2,6-Dichloro-N-((1-(4-(ethylsulfonyl)piperazin-1-yl)cycloheptyl)methyl) benzamide Hydrochloride]
- IC50 [1]: 0.195 µM
- IC50 [2]: > 75 µM

Structure (SMILES): CCCS(=O)(=O)N1CCN(C2(CNC(=O)c3c(C)cc(F)cc3OC)CCCC2)CC1 [compound 75, 4-Fluoro-2-methoxy-6-methyl-N-((1-(4-(propylsulfonyl)piperazin-1-yl)cyclopentyl)methyl) benzamide Hydrochloride]
- IC50 [1]: 0.268 µM
- IC50 [2]: > 75 µM

Structure (SMILES): CCCS(=O)(=O)N1CCN(C2(CNC(=O)c3ccc(Cl)cc3OC)CCCCC2)CC1 [compound 45, 4-Chloro-2-methoxy-N-((1-(4-(propyl-sulfonyl)piperazin-1-yl)cyclohexyl)methyl) benzamide Hydrochloride]
- IC50 [1]: 0.322 µM
- IC50 [2]: > 75 µM

Structure (SMILES): CCCS(=O)(=O)N1CCN(C2(CNC(=O)c3c(C)cc(F)cc3OC)CCC(F)(F)CC2)CC1 [compound 137, N-((4,4-Difluoro-1-(4-(propylsulfonyl)piperazin-1-yl)cyclohexyl)methyl)-4-fluoro-2-methoxy-6-methylbenzamide Hydrochloride]
- IC50 [1]: 0.028 µM
- IC50 [2]: > 75 µM

Structure (SMILES): CCCS(=O)(=O)N1CCN(C2(CNC(=O)c3ccc(Cl)cc3Cl)CCCCC2)CC1 [compound 2, 2,4-Dichloro-N-((1-(4-(propylsulfonyl)piperazin-1-yl)cyclohexyl)methyl)benzamide Hydrochloride]
- IC50 [1]: 0.022 µM
- IC50 [2]: 22.7 µM

Structure (SMILES): Cn1cnc(S(=O)(=O)N2CCN(C3(CNC(=O)c4ccc(F)cc4Cl)CCC(F)(F)CC3)CC2)c1 [compound 166, 2-Chloro-N-((4,4-difluoro-1-(4-(1-methyl-1H-imidazol-4-ylsulfonyl)piperazin-1-yl)cyclohexyl)methyl)-4-fluorobenzamide Hydrochloride]
- IC50 [1]: 0.005 µM
- IC50 [2]: > 75 µM

Structure (SMILES): CCCS(=O)(=O)N1CCN(C2(CNC(=O)c3c(F)cccc3OC)CCCCC2)CC1 [compound 44, 2-Fluoro-6-methoxy-N-((1-(4-(propyl-sulfonyl)piperazin-1-yl)cyclohexyl)methyl) benzamide Hydrochloride]
- IC50 [1]: 0.017 µM
- IC50 [2]: > 75 µM

Structure (SMILES): COc1cc(F)cc(C)c1C(=O)NCC1(N2CCN(S(=O)(=O)CC3CC3)CC2)CCCCCC1 [compound 86, N-((1-(4-(Cyclopropylmethyl-sulfonyl)piperazin-1-yl)cycloheptyl)methyl)-4-fluoro-2-methoxy-6-methylbenzamide Hydrochloride]
- IC50 [1]: 0.099 µM
- IC50 [2]: > 75 µM

From US9045445B2, “Glycine transporter-1 inhibitors, methods of making them, and uses thereof” (Albany Molecular Research, Inc., priority 2010, dated 2015)
